These results are taken from a melting point compilation (Tetko et al.; mined from patent text by program, amines drawn as free bases though some values may be those of a salt).

Residues, ends and D or L forms follow the SMILES beside them. *: point of attachment. Tos = Cc1ccc(S(=O)(=O)*)cc1

As to `CS(=O)(=O)Nc1cccc(S(=O)(=O)N2CCOc3c(N4CCNCC4)cccc32)c1`, the melting point (usually the temperature, or range, at which the solid turns liquid) is 158 to 164 °C.

In turn, `COc1ccc2c(c1)CC(=O)NC2=O` registered a melting point of 212 to 215 °C.

Compound `O=C1C(=O)c2ccc(-c3ccncc3)cc2C2=C1SCC1(CCNCC1)O2` yielded a melting point of 223 to 228 °C.

The compound `COCCOCOc1c(C(C)(C)C)cc(-c2noc(=O)[nH]2)cc1C(C)(C)C` registered a melting point of 112 to 114 °C.

`CC(=O)Nc1ccc(Cn2c3c(c4cc(F)cc(F)c42)CCCC3CC(=O)O)cc1` (stereo not given) displayed a melting point of 237 to 239 °C.

Turning to `CNCCOc1ccc(C2=C(c3ccccc3)CCCc3cc(O)ccc32)cc1`, the melting point lay within 184 to 187 °C.

As for `O=c1[nH]c2ncc(-c3ccc(O)cc3)nc2n1CC1CCCOC1` (stereo not given), the melting point fell in the range of 271 to 272 °C.

For the compound `CN1CCC(OC2c3cccc(OCc4ccccc4)c3CCn3cc(-c4ccccc4)nc32)CC1` (stereo not given), the melting point was determined as 68 °C.

Take `CC(C)n1nc(-c2c(-c3ccccc3)nn3ccc(C(=O)N4CCC(c5ccccc5)CC4)cc23)ccc1=O`: the melting point fell in the range of 184 to 185 °C.

Compound `CCCc1c(C(=O)C(C)C)c2ccc(C(N)=O)cc2n1Cc1ccccc1OC` yielded a melting point of 174 to 175 °C.

`CCOC(=O)C1=C(C(=O)OCC)C(c2cccc([N+](=O)[O-])c2)C(C(=O)OCC)=C(C(=O)OCC)N1`: the melting point was 121 to 124 °C.

Compound `Nc1ncnc2cc(-c3ccc(C(F)(F)F)cc3)sc12` displayed a melting point of 181 to 194 °C.

For the compound `CCc1cc(Cl)c(S(C)(=O)=O)cc1C(=O)O`, the melting point is 180 to 183 °C.

On to `Cc1cnc(CCCC#N)c(N)c1`, for which the melting point is 84 to 87 °C.

For `CN1C(=O)N(CCC(=O)O)C(C)(C)C1=O`, the melting point was found to be 103 °C.

In the case of `CC(C)OC(=O)CCc1ccc(-n2ccn(-c3ccc(C(=N)N)cc3)c2=O)cc1`, the melting point is above 250 °C.

`CCOC(=O)COc1c(CO)c(C(F)(F)F)nn1C` gave a melting point of 57 to 59 °C.

`O=C(O)CCc1c[nH]c2c(C(=O)c3ccc(Cl)cc3)cccc12` yielded a melting point of 190 to 202 °C.

As for `CC(=O)Nc1ccc(Sc2ccccc2)cc1`, the melting point is 142 to 144 °C.

As to `Nc1ccc(-c2ccc(-c3ccc(N)cc3Cl)o2)c(Cl)c1`, the melting point lay within 192 to 193 °C.

The compound `COC(=O)/C=C/C=C(\c1ccc(OC)cc1)c1cccnc1` gave a melting point of 75 to 76 °C.

`CC(=O)Oc1ccc(C(C)=NOCCOc2ccc(CC3SC(=O)NC3=O)cc2)cc1` (stereo not given) returned a melting point of 133 to 135 °C.

`COc1cc(OC)c(N2CCCC2)cc1/C=C/C(=O)c1ccc(S(=O)(=O)NCC(=O)O)cc1`: the melting point fell in the range of 155 to 158 °C.

With `O=C(CCC1CCCC1)N1CCN(C(=O)c2cc(C(F)(F)F)cc(C(F)(F)F)c2)[C@H](Cc2c[nH]c3ccccc23)C1`, the melting point was in the range of 180 to 183 °C.

For `CCOC(=O)C1=C(C)N=C(N)C(Cc2ccccc2)(C(=O)OCC)C1c1cccc([N+](=O)[O-])c1` (stereo not given), the melting point came to 208 °C.

Compound `CCOC(=O)C1=C(CC)NN=C(C(=O)OC)C1c1cccc([N+](=O)[O-])c1` (stereo not given) returned a melting point of 139 °C.

In turn, `CC(=O)Oc1ccc(C(=O)Oc2ccc(C(=O)O)cc2)cc1` returned a melting point of 98 to 100 °C.

As for `CCCCOCCOc1ccc(-c2ccc(N3CCCC3)c(C(C)=O)c2)cc1`, the melting point fell in the range of 87 to 88 °C.

Take `CC(C)(C)c1cccc2nc(C(F)(F)F)[nH]c12`: the melting point lay in the range of 149 to 152 °C.

`Cc1cccc(-c2nc3c(C)cccc3[nH]2)c1[N+](=O)[O-]` came in with a melting point of 186 to 188 °C.

On to `CN=C1CN(c2ccccc2)C(=O)N1C`, for which the melting point was in the range of 160 to 162 °C.

In turn, `O=C(/C=C/c1ccn(S(=O)(=O)c2ccc(-c3ccccn3)s2)c1)NO` displayed a melting point of 181 to 182 °C.

`COC1=CCC(Br)(OC)C=C1C(=O)C(Br)CCC1CCCCC1` (stereo not given) came in with a melting point of 96 to 104 °C.

In turn, `CCCCSc1nnc(N(C)C(=O)NC)s1` yielded a melting point of 135 to 137 °C.

Take `Cc1cc2c(cc1Sc1ccc(C=O)cc1)C(C)(C)CCC2(C)C`: the melting point fell in the range of 98 to 99 °C.

`O=C(O)Cc1ccc(-c2cn3ccccc3n2)cc1` displayed a melting point of 217 to 221 °C.

Regarding `NC(=O)c1ccc2[nH]cc(CCCCN3CC=C(c4ccccc4)CC3)c2c1`, the melting point was 200 to 205 °C.

In turn, `CCCOc1ccccc1CCCOc1ccc2c(c1)C=C(C(=O)O)CCS2(=O)=O` gave a melting point of 153 to 157 °C.

`O=C(/C=C/C=C(c1cccc(Cl)c1)c1cccc(Cl)c1)NCCCCc1cccnc1` came in with a melting point of 100 to 102 °C.

In the case of `CCCCCS(=O)(=O)NC(=O)c1ccc2[nH]c(C)c(Cc3ccc(SC(C)(C)C)cc3Cl)c2c1`, the melting point is 185 to 188 °C.

As for `O=[N+]([O-])c1ccc(OCC2CCN(c3ccncc3)CC2)cc1`, the melting point lay within 119 to 120 °C.

In the case of `CC(C)NCC(O)COc1ccc2nc3[nH]c(=O)[nH]c3cc2c1` (stereo not given), the melting point lay in the range of 262 to 264 °C.

The compound `O=C1N(N2CCOCC2)c2ccccc2C1(O)Cc1ccccn1` (stereo not given) registered a melting point of 168 to 170 °C.

As for `CS(=O)(=O)N=C(NCC(=O)O)Nc1ccc(C#N)cc1`, the melting point came to 170 °C.

Turning to `CCC1C(=O)Oc2c(Oc3ccccc3C)cccc21` (stereo not given), the melting point was 44 to 45 °C.

In the case of `ClC12CCCC(C1)C1CCC2C1` (stereo not given), the melting point fell in the range of 68 to 69 °C.

`OCc1ccnc(Nc2ncc(-c3ccccc3)s2)c1` registered a melting point of 236 to 237 °C.

For `O=S1N=C(NCCCOc2cccc(CN3CCCCC3)c2)C(NCc2ccccn2)=N1` (stereo not given), the melting point is 140 to 143 °C.

As to `N#CC1(c2ccc(OCc3ccc(F)cc3)c(OC3CCCC3)c2)CCC(=O)CC1`, the melting point fell in the range of 145 to 146 °C.

Compound `Cn1c(=S)n(CCN2CCC(Nc3nc4ccccc4n3Cc3ccco3)CC2)c(=O)c2ccccc21` gave a melting point of 188 °C.

For the compound `CCP(=O)(OC)C(O)[C@H](CC1CCCCC1)NC(=O)[C@H](CC(C)C)NC(=O)[C@H](Cc1ccccc1)NC(=O)C1CCCC1` (stereo not given in full), the melting point was 155 to 165 °C.

`CCOC(=O)/C=C/C=Cc1ccc(OCCc2nc(-c3ccccc3)oc2C)cc1` had a melting point of 102 to 103 °C.

In the case of `C=CC(=O)NC(=O)CC(C)=O`, the melting point was in the range of 128 to 130 °C.

In turn, `O=Cc1cccn2cc(C(F)(F)F)nc12` came in with a melting point of 98 to 100 °C.

Regarding `O=[N+]([O-])c1cccc(-n2cnc3c([N+](=O)[O-])cccc32)c1`, the melting point lay in the range of 159 to 161 °C.

For `CCc1ccccc1S(=O)(=O)N(OCCF)C(=O)n1nc(C)n(C2CC2)c1=O`, the melting point amounted to 147 °C.

The compound `Cc1cccc(NC(=O)NC2N=C(C3CCCCC3)c3ccccc3N(Cc3ccccn3)C2=O)c1` (stereo not given) displayed a melting point of 157 to 163 °C.

Regarding `CC(=O)OCc1c(-c2ccccc2)oc2c(CO)cccc2c1=O`, the melting point was in the range of 204 to 206 °C.

In turn, `Nc1cc(CCC(=O)CCc2ccc(O)c(N)c2)ccc1O` showed a melting point of 131 to 133 °C.

As to `COc1ccc(/C=C/C(=O)/C=C/c2ccc(OC(F)(F)F)cc2)cc1`, the melting point lay in the range of 105 to 107 °C.

As for `Cc1ccc(-n2c(=O)c(N)nc3cccnc32)cc1`, the melting point is above 250 °C.

With `CC(CI)CCCC(C)C1CC=C2C3=C(CCC21C)C1(C)CCC(O)C(C)(C)C1CC3` (stereo not given), the melting point turned out to be 148 °C.

Turning to `COc1c(C(=O)O)ccc2ccccc12`, the melting point is 118 to 122 °C.

As for `CON1C(=O)CC2(CCN(C(=O)OC(C)(C)C)CC2)C1=O`, the melting point amounted to 117 °C.

`Cc1cccc(OC2CCN(CCc3c[nH]c4ccccc34)CC2)c1` displayed a melting point of 145 to 146 °C.

`CCCCCCCCCCCc1nc(NC(=O)Nc2c(C(C)C)cccc2C(C)C)n[nH]1`: the melting point lay in the range of 168 to 170 °C.

`CCn1cc(-c2ccccc2)nc(S(=O)(=O)Cc2ccc(Cl)cc2)c1=O` gave a melting point of 146 to 148 °C.

`CCC(CC)c1ccc(C=O)c2nc(Oc3c(C)cc(Cl)cc3Cl)n(C)c12` had a melting point of 148 to 149 °C.

With `Cc1ccc2sc(S(=O)(=O)c3cn[nH]c(=O)c3)cc2c1`, the melting point lay in the range of 240 to 242 °C.

For `CCOC(=O)c1cc(Cl)c(OCCCc2cc(C)no2)c(Cl)c1`, the melting point was 49 to 50 °C.

As for `COC(=O)c1cccc(=O)n1C`, the melting point was in the range of 56 to 57 °C.

With `CCOC(=O)c1c(C2CC2)nn(CC)c1Cc1ccc(-c2ccccc2-c2nnn[nH]2)cc1`, the melting point fell in the range of 73 to 77 °C.

`COC(=O)CCc1oc(=O)[nH]c1-c1ccc(C(F)(F)F)cc1`: the melting point fell in the range of 156 to 157 °C.

In the case of `Cc1oc(-c2ccc(C(C)C)cc2)nc1CCOc1ccc(C[C@H](OCC(F)(F)F)C(=O)O)c2sccc12`, the melting point lay in the range of 181 to 182 °C.

Compound `NC1CCCN(C(=O)c2ccc(NC(=O)c3ccccc3Cl)cc2)c2ccccc21` (stereo not given) came in with a melting point of 176 to 178 °C.

The compound `ON=C1c2sccc2-n2cccc21` came in with a melting point of 172 °C.

`O=C(c1ccn2c1CSC2c1cccnc1)c1c[nH]c2cc(Br)ccc12` (stereo not given): the melting point stood at 265 °C.

The compound `CC(C)NC(=O)OCC(=O)c1ccc(Cl)cc1` registered a melting point of 163 to 164 °C.

`O=C(Oc1ccccc1)c1cc(O)c(O)c(O)c1` displayed a melting point of 190 to 191 °C.

Regarding `Cc1cc(Oc2ccccc2)nc2ccccc12`, the melting point turned out to be 101 °C.

Regarding `CC(=O)Nc1cc2c(cc1[N+](=O)[O-])OC(C)(C)[C@@H](O)[C@@H]2N` (relative stereo), the melting point was 258 to 261 °C.

In turn, `CCOC(=O)c1cnc2sc3c(n12)CCCC3` showed a melting point of 75 to 76 °C.

As for `O=C(c1ccccc1F)c1cc(Cl)ccc1I`, the melting point lay within 78 to 81 °C.

Turning to `Cc1ccc(S(=O)(=O)N2CCC[C@H]2C(=O)N[C@@H](CC(=O)O)C(=O)O)cc1` (Tos-Pro-Asp-OH), the melting point fell in the range of 153 to 155 °C.

Compound `CC(C)NCC(O)COc1ccc2c(=O)cc(-c3cc(O)cc(O)c3)oc2c1` (stereo not given) showed a melting point of 130 °C.

In the case of `CC(=O)Nc1ccc(OCCOCCOc2ncc(Cl)cn2)cc1`, the melting point came out at 110 °C.

`COCCOc1ccc(/C=C/C(=O)O)c(Oc2ncc(Br)cc2C)c1` showed a melting point of 157 to 158 °C.

The compound `O=C(Nc1cccnc1)C(Cl)(Cl)Cl` registered a melting point of 149 to 151 °C.

In turn, `Cc1cccc(NS(=O)(=O)c2ccc([N+](=O)[O-])cc2)c1` showed a melting point of 121 to 124 °C.

In turn, `CCCc1c(-c2cc(=O)c3c(O)cc(O)cc3o2)ccc(OC)c1O` had a melting point of 200 °C.
